Earlier results as cited in US20090004173A1, “Diagnosis and Treatment of Drug Resistant Leukemia” (priority 2004, published 2009).
Read-outs that look alike come from different tables or passages of the source.

B1: L-asparaginase (protein, UniProt P00805 23-348, looked up)
L-asparaginase 2: LPNITILATGGTIAGGGDSATKSNYTVGKVGVENLVNAVPQLKDIANVKGEQVVNIGSQDMNDNVWLTLAKKINTDCDKTDGFVITHGTDTMEETAYFLDLTVKCDKPVVMVGAMRPSTSMSADGPFNLYNAVVTAADKASANRGVLVVMNDTVLDGRDVTKTNTTDVATFKSVNYGPLGYIHNGKIDYQRTPARKHTSDTPFDVSKLNELPKVGIVYNYANASDLPAKALVDAGYDGIVSAGVGNGNLYKSVFDTLATAAKTGTAVVRSSRVPTGATTQDAEVDDAKYGFVASGTLNPQKARVLLQLALTQTKDPQQIQQIFNQY

Assays:
[1] = tested on: non-leukemic cell lines; conditions: Niitsu et al. (2000)
[2] = tested on: leukemia cells; conditions: for LC50 values for classification of ALL: Resistant / LC50 values for classification of ALL: Sensitive: LC50 by MTT, cut-off previously associated with treatment outcome
[3] = classification cut-off: cell is resistant if LC-50 is equal to or greater than the value

Molecule	sensitization to the cytotoxicity of daunorubicin and doxorubicin [1]	LC50 values for classification of ALL: Resistant [2]	LC50 values for classification of ALL: Sensitive [2]	LC-50 values for classifying leukemia cells as drug-resistant [2, 3]	LC-50 values for classifying leukemia cells as drug-resistant [2]
CCCC(=O)OCOC(=O)C(C)(C)C [AN-9]	sensitize non-leukemic cell lines to the cytotoxicity of daunorubicin and doxorubicin				
CC[C@]1(O)C[C@H]2CN(CCc3c([nH]c4ccccc34)[C@@](C(=O)OC)(c3cc4c(cc3OC)N(C=O)[C@H]3[C@@](O)(C(=O)OC)[C@H](OC(C)=O)[C@]5(CC)C=CCN6CC[C@]43[C@@H]65)C2)C1 [Vincristine, vincristine]		≧1.758 μg/ml	≦0.391 μg/ml	≧1.758 μg/ml	
COc1cccc2c1C(=O)c1c(O)c3c(c(O)c1C2=O)C[C@@](O)(C(C)=O)C[C@@H]3O[C@H]1C[C@H](N)[C@H](O)[C@H](C)O1 [Daunorubicin, daunorubicin]		≧0.114 μg/ml	≦0.075 μg/ml	≧0.114 μg/ml	
C[C@]12C=CC(=O)C=C1CC[C@@H]1[C@@H]2[C@@H](O)C[C@@]2(C)[C@H]1CC[C@]2(O)C(=O)CO [Prednisolone, prednisolone]		≧150 μg/ml	≦0.100 μg/ml	≧150 μg/ml	
B1		≧0.912 IU/ml	≦0.033 IU/ml		≧0.912 IU/ml
